Values quoted from earlier work, collected in patent US20060135599A1, “Use for pharmaceutical composition” (GW Pharma Limited, priority 2002, published 2006).

Legend:
spasticity [1] = settings: oral, 13 patients
spasticity [2] = settings: oral, nine patients

CCCCCc1cc(O)c2c(c1)OC(C)(C)[C@@H]1CCC(C)=C[C@@H]21 [oral THC, Δ^9 tetrahydrocannabinol]
subjective improvements in spasticity (spasticity [1]): significant subjective improvements
spasticity compared with placebo (spasticity [2]): statistically significant reduction
